Source: patent US10280447B2, “Substituted imidazo[1,2-A]pyrazines tethered to energy acceptors” (PROMEGA CORPORATION, priority 2016, dated 2019)

Tested on: NanoLuc® enzyme and NanoLuc-Halotag fusion protein enzyme
Experiment: Spectral profile of the coelenterazine analogue/luciferase reaction (Tecan-M1000, 3 nm increments)
Format: biochemical, Oplophorus gracilirostris
Conditions: NanoGlo® buffer
Procedure: FIGS. 2A-2D show the spectral profiles of varying concentrations of TAK-0043 and enzyme in NanoGlo® buffer. […] TAK-0043 was tested as a potential coelenterazine analogue capable of shifting the emission spectrum in a coelenterazine/luciferase reaction. A dilution series of purified NanoLuc® enzyme (Promega E499a) and NanoLuc-Halotag fusion protein enzyme was prepared in OptiMEM+0.1% FBS starting 2 μM. 50 ul of the 2 μM enzyme dilutions were combined with 50 μl of 2 μM and 20 μM TAK-0043 in NanoGlo® buffer in triplicate. These samples were immediately read on the Tecan-M1000 using 3 nm increments to obtain spectral profiles. Another spectral measurement was completed by combining 50 μl of 6.6 μM NanoLuc® enzyme and NanoLuc-Halotag fusion protein enzyme in OptiMEM+0.1% FBS with 50 μl of 2 μM TAK-0043 in NanoGlo® buffer in triplicate. This sample was also read on the Tecan M-1000 using […] increments.

With `O=C(NCCCCCCOc1cccc(Cc2nc3c(Cc4ccccc4)[nH]c(-c4ccccc4)cn-3c2=O)c1)c1ccc(C(=O)O)c(C2=c3cc4c5c(c3Oc3c2cc2c6c3CCCN6CCCC2)CCC[N+]=5CCCC4)c1` [TAK-0043] the “peak for coelenterazine emission at 460 nm” value (TAK-0043 with NanoLuc® and NanoLuc-HaloTag fusion enzyme) was “nearly invisible”, the “emitted photons shifted to NCT dye emission” value (all concentrations of TAK-0043 (1 or 10 uM) and enzyme (1 or 3.3 uM) used) was over 95% and the emission maximum (all concentrations of TAK-0043 and enzyme used) was 618 nm.
